Experiments:
cultures of NPCs = experiment: Apoptotic cells in NPC cultures; assay type: cell-based, mouse; conditions: data not shown
[1] = Mortality before weaning, neonatal treatment
Source text: Treatment with either 7,8-DHFor vehicle began on postnatal day 3(P3). All mice that survived in the P0 to P3 period entered this study, with no specific selection criteria. Total of 185 mice entered the study (96 males and 89 females). The number of vehicle-treated and 7,8-DHF treated mice was 96 and 89, respectively.
The Ts65Dn strain is characterized by a high mortality rate during gestation (Roper et al., 2006). […] In the current study, treatment with either 7,8-DHF or vehicle began on postnatal day 3 (P3). All mice that survived in the P0 to P3 period entered this study, with no specific selection criteria.

TrkB receptor = TrkB receptor (Homo sapiens, UniProt Q16620); conditions: Liu et al., 2010 and 2013; cited from earlier work
Chain of TrkB receptor (Q16620 32-822): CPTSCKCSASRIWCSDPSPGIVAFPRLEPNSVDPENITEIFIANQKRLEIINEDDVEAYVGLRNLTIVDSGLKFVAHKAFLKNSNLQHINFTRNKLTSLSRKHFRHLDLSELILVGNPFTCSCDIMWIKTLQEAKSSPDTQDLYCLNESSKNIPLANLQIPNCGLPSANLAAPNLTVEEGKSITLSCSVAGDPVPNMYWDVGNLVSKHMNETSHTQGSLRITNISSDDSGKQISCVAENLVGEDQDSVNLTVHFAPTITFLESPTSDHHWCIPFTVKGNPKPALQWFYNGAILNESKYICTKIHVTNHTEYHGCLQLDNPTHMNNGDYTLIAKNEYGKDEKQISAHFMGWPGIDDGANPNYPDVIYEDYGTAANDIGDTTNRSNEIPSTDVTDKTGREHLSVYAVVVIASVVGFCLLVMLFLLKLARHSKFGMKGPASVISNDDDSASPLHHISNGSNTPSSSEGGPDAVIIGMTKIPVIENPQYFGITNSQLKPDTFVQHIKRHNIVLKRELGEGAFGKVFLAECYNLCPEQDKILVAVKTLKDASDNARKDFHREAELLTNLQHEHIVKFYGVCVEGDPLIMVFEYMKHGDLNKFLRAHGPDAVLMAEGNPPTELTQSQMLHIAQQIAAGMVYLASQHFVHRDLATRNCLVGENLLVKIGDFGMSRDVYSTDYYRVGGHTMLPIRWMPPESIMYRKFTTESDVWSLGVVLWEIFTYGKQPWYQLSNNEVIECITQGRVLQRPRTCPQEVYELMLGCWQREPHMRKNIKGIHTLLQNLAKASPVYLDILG

[2] = Prenatal treatment: abortion rate, pups per litter, mortality of progeny
Description: Ts65Dn females (n=4) were bred C57BL/6JEi×C3SnHeSnJ (B6EiC3) F1 males (n=4). Conception was determined by examining the vaginal plug. Pregnant females received a daily subcutaneous injection of either 7,8-DHF (Sigma-Aldrich) in PBS with 2% DMSO (dose: 5 mg/kg) or vehicle from the embryonic (E) day 10 (E10) to the day of delivery (E20/21). […] On postnatal day 2 (P2) the progeny of 7,8-DHF-treated and vehicle-treated females received an intraperitoneal injection (150 μg/g body weight) of BrdU (Sigma) in 0.9% NaCl solution and were killed after 2 h (on P2; 4-8 animals for each group). Vehicle-treated females and their progeny will be called hereafter untreated mice. The body weight of P2 mice was recorded prior to sacrifice. After sacrifice, brain was excised and weighed.
The Ts65Dn strain is characterized by a high mortality rate during gestation (Roper et al., 2006).

[3] = tested on: proliferating cells in the SVZ; experiment: Prenatal treatment: BrdU-positive cells in the SVZ of P2 mice; assay type: in vivo, mouse
Description: (§1) Conception was determined by examining the vaginal plug. […] After sacrifice, brain was excised and weighed.
(§2) One of 20 sections (n=8-10) from the beginning to the end of the hippocampal formation were subjected to double-fluorescence immunohistochemistry for BrdU and NeuN. Sections were incubated overnight at 4° C. with a primary antibody, rat monoclonal anti-BrdU antibody (AbD Serotec), diluted 1:100 in 0.1% Triton X-100 in PBS and either mouse monoclonal anti-NeuN (Millipore Bioscience Research Reagents) diluted 1:400 in 0.1% Triton X-100 in PBS. Sections were then washed in 0.1% Triton X-100 in PBS for 40 min and incubated for 2 h with a Cy3-conjugated anti-rat IgG (1:200; Jackson Immunoresearch) secondary fluorescent antibody for BrdU immunohistochemistry and FITC-conjugated anti-mouse IgG (1:200; Jackson Immunoresearch) for NeuN immunohistochemistry.
(§3) BrdU-positive cells were sampled in the caudal subventricular zone (SVZ) of the lateral ventricle overlying the dentate gyrus and from the subgranular zone (SGZ) of the dentate gyrus (FIG. 10A). The caudal SVZ is the region that stretches from the beginning to the end of the hippocampal formation (BC: 3.27-4.84 mm). Since different regions of the ventricular zone (VZ) and SVZ give origin to neurons destined to different telecephalic areas (Brazel et al., 2003), we evaluated the effects of treatment both in the dorsal and lateral part of the SVZ (FIG. 10B). For cell counting, an area was traced enclosing the whole SVZ and all cells in this area were counted. While at later life stages, neural progenitor cells are only present in the SGZ of the dentate gyrus, in P2 pups proliferating cells can be detected in the perspective molecular layer and hilus. Therefore, cells were counted within a manually-traced area enclosing the whole dentate gyrus (FIG. 10B). […] Quantification of BrdU-labeled nuclei was conducted in every 20th section. The total number of BrdU labeled cells in the SVZ and SGZ was estimated by multiplying the number counted in the sampled sections by the inverse of the section sampling fraction (ssf= 1/20).

BDNF = experiment: Western blot of hippocampal homogenates: BDNF; assay type: in vivo, mouse
Description: Euploid and Ts65Dn mice received a daily subcutaneous injection (at 9-10 am) of 7,8-DHF (5.0 mg/kg in vehicle: PBS with 1% DMSO) or vehicle from postnatal day 3 (P3) to postnatal day 15. This timing was chosen because it corresponds to that previously used to test the effects of fluoxetine and other pharmacotherapies in the neonate Ts65Dn mouse (Bianchi et al., 2010b; Giacomini et al., 2015; Stagni et al., 2016). Mice that received 7,8-DHF will be called “treated mice” (treated euploid mice: n=25; treated Ts65Dn mice: n=15). Mice that received the vehicle will be called “untreated mice” (untreated euploid mice: n=35; untreated Ts65Dn mice: n=21). […] The brains were excised and cut along the midline. The left hemisphere of a group of mice was fixed by immersion in PFA 4% and frozen, and the left hemisphere of another group of mice was used for Golgi staining. […]
In homogenates of the hippocampal formation of P15 mice, total proteins were obtained as previously described (Trazzi et al., 2011) and the levels of the following proteins were evaluated: BDNF, TrkB full length (TrkB-FL), phosphorylated TrkB (p-TrkB), the truncated form 1 of the TrkB receptor (TrkB-T1), phosphorylated ERK1 (p-ERK1), phosphorylated ERK2 (p-ERK2), ERK1, ERK2, synaptophysin (SYN), GAPDH and α-Tubulin using the antibodies reported in Table 1. […]

[4] = tested on: proliferating cells in the SGZ; experiment: Prenatal treatment: BrdU-positive cells in the SGZ of P2 mice; assay type: in vivo, mouse
Description: as §1, §2, §3

[5] = dose of 5.0 mg/kg, Liu et al., 2010; cited from earlier work
[6] = tested on: TrkB receptor (TrkB-FL, p-TrkB-FL, TrkB-T1); experiment: Western blot of hippocampal homogenates: TrkB receptors; assay type: in vivo, mouse
Description: Euploid and Ts65Dn mice received a daily subcutaneous injection (at 9-10 am) of 7,8-DHF (5.0 mg/kg in vehicle: PBS with 1% DMSO) or vehicle from postnatal day 3 (P3) to postnatal day 15. This timing was chosen because it corresponds to that previously used to test the effects of fluoxetine and other pharmacotherapies in the neonate Ts65Dn mouse (Bianchi et al., 2010b; Giacomini et al., 2015; Stagni et al., 2016). Mice that received 7,8-DHF will be called “treated mice” (treated euploid mice: n=25; treated Ts65Dn mice: n=15). Mice that received the vehicle will be called “untreated mice” (untreated euploid mice: n=35; untreated Ts65Dn mice: n=21). […] The brains were excised and cut along the midline. The left hemisphere of a group of mice was fixed by immersion in PFA 4% and frozen, and the left hemisphere of another group of mice was used for Golgi staining. The right hemispheres of all mice was kept at −80° C. and used for western blotting.
In homogenates of the hippocampal formation of P15 mice, total proteins were obtained as previously described (Trazzi et al., 2011) and the levels of the following proteins were evaluated: BDNF, TrkB full length (TrkB-FL), phosphorylated TrkB (p-TrkB), the truncated form 1 of the TrkB receptor (TrkB-T1), phosphorylated ERK1 (p-ERK1), phosphorylated ERK2 (p-ERK2), ERK1, ERK2, synaptophysin (SYN), GAPDH and α-Tubulin using the antibodies reported in Table 1. Densitometric analysis of digitized images with ChemiDoc XRS+ was performed with Image Lab software (Bio-Rad Laboratories, Hercules, Calif., USA) and intensity for each band was normalized to the intensity of the corresponding GAPDH or α-Tubulin band.

[7] = P2 Ts65Dn mice, treated E10-E20/21

O=c1cc(-c2ccccc2)oc2c(O)c(O)ccc12 [7,8-DHF, 7,8-dihydroxyflavone]
number of apoptotic cells (cultures of NPCs): no effect of treatment | adverse effects on the health of mice ([1]; mouse, in vivo): no adverse effects on the health of mice | mice that died before weaning ([1]; treatment from P3, deaths in the P6-P22 period, vehicle 7.3%): 5.6% | binding to the TrkB receptor (TrkB receptor): high affinity and specificity | mean number of pups per litter ([2]; female, Ts65Dn, mouse, in vivo): 5.33±2.04 | spontaneous abortion ([2]; mouse, in vivo): none of untreated and treated females underwent spontaneous abortion | mortality rate of the progeny ([2]; treated females, mean±ES, vehicle 0.00±0.00, p=0.219): 0.66±0.81 | total number of BrdU-positive cells in the SVZ, treated Ts65Dn vs untreated euploid mice ([3]; P2, treated E10-E20/21): no differences in total number of BrdU-positive cells | total number of BrdU-positive cells in the SVZ ([3]; P2 Ts65Dn mice, dams 5 mg/kg s.c. E10-E20/21, untreated Ts65Dn approx. 22500, euploid approx. 32300): approximately 33900 | increase in cell number in the SVZ vs untreated Ts65Dn [3, 7]: +50% | BDNF levels in the hippocampus (BDNF; P15 Ts65Dn mice, statistically significant): reduction in BDNF levels | BDNF levels in the hippocampus (BDNF; P15 euploid mice, not statistically significant): reduction in BDNF levels | total number of BrdU-positive cells in the SGZ, treated Ts65Dn vs untreated euploid mice ([4]; P2, treated E10-E20/21): no differences in total number of BrdU-positive cells | total number of BrdU-positive cells in the SGZ ([4]; P2 Ts65Dn mice, dams 5 mg/kg s.c. E10-E20/21, untreated Ts65Dn approx. 12850, euploid approx. 17500): approximately 16800 | increase in cell number in the SGZ vs untreated Ts65Dn [4, 7]: +30% | toxic effects [5]: no toxic effects | levels of p-TrkB-FL ([6]; P15, both genotypes (euploid and Ts65Dn)): increase in the levels of p-TrkB-FL | levels of TrkB-FL ([6]; P15 Ts65Dn mice): reduction in the levels of TrkB-FL | levels of TrkB-T1 ([6]; P15 Ts65Dn mice, vs untreated counterparts and untreated euploid mice): reduction in the levels of TrkB-T1

Source: patent US10945989B2, “Perinatal treatment with a flavonoid agonist of the TrkB receptor for BDNF rescues neurogenesis and behavior in the Ts65Dn mouse model of DS” (ALMA MATER STUDIORUM—Universita' di Bologna, priority 2017, dated 2021)
